By pA2 is commonly meant a measure of antagonist potency on a negative log scale. Higher therefore signals a more potent antagonist. As usually defined, the Ki is a measure of affinity in units of concentration, obtained from inhibition or displacement. Read a high Ki as lower affinity.

In test [1] the target is T1, Adrenergic receptor alpha-2 (Rattus norvegicus, UniProt P22086+P19328+P22909).
T1 sequence (P22086 whole entry): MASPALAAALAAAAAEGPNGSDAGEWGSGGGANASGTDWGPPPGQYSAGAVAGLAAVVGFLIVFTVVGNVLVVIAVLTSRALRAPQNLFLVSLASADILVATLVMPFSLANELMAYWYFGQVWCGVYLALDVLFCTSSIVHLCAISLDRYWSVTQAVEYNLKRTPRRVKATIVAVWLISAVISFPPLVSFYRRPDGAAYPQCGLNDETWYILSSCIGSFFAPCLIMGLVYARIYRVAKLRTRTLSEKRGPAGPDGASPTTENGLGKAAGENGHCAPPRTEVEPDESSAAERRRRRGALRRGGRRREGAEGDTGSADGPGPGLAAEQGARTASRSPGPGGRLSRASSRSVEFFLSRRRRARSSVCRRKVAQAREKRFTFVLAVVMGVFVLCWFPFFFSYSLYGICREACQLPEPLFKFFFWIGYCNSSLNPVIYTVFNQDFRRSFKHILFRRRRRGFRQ
T1 sequence (P19328 whole entry): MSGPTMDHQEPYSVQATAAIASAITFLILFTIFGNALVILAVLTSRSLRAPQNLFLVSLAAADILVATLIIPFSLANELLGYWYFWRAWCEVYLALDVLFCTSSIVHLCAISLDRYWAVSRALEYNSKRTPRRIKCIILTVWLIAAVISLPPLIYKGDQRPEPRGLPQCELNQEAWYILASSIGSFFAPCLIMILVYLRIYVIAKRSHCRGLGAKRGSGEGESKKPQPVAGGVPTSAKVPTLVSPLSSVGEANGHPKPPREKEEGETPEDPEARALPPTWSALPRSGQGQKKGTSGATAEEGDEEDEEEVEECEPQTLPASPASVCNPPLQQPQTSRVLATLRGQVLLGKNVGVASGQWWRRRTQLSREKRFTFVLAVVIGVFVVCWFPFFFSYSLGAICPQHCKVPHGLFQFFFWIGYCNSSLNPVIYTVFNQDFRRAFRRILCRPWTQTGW
T1 sequence (P22909 whole entry): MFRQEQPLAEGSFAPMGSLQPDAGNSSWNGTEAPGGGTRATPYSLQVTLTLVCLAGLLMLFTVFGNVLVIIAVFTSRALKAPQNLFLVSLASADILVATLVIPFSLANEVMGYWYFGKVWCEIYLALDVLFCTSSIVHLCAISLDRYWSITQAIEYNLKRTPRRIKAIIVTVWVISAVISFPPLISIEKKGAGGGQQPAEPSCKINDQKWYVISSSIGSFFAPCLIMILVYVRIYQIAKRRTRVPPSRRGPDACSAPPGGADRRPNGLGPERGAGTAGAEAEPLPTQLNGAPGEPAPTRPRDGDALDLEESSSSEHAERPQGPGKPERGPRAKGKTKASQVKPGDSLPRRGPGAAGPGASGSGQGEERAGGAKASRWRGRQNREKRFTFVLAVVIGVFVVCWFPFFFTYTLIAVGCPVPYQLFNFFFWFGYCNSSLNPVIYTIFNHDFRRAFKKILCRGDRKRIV
The test can be described thus: Presynaptic antagonistic activity against alpha-2 adrenergic receptor from rat, isolated, field-stimulated vas deferens, using clonidine as the agonist. It counts as functional.

The target of test [2] is T2, Alpha-1A adrenergic receptor (Bos taurus, UniProt P18130).
T2 sequence (P18130 whole entry): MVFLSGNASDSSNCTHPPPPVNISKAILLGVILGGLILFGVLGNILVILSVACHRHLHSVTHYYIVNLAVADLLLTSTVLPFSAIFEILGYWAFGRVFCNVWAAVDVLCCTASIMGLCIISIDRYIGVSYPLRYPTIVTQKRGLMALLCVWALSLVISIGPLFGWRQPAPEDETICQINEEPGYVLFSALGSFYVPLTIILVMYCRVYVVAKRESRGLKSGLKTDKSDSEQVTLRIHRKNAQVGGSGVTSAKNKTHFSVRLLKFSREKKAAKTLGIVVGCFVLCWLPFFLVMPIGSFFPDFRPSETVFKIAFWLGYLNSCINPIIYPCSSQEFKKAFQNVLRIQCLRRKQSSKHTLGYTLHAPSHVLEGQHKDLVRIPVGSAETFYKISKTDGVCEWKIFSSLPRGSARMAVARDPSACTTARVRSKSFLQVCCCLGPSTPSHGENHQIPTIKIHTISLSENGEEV
The test can be described thus: Binding activity against alpha-1 adrenergic receptor from calf cerebral cortex, using [3H]-prazosin as the radioligand. In kind it is tissue-based.

The target in test [3] is T3, Adrenergic receptor alpha-2 (Rattus norvegicus) (UniProt P22086+P19328+P22909).
Description: Antagonistic activity against central alpha-2 adrenergic receptor, in anesthetized rats (reversal of clonidine-induced mydriasis)
Test [4] addresses T4, Alpha-2A adrenergic receptor (Bos taurus, UniProt Q28838).
T4 sequence (Q28838 whole entry): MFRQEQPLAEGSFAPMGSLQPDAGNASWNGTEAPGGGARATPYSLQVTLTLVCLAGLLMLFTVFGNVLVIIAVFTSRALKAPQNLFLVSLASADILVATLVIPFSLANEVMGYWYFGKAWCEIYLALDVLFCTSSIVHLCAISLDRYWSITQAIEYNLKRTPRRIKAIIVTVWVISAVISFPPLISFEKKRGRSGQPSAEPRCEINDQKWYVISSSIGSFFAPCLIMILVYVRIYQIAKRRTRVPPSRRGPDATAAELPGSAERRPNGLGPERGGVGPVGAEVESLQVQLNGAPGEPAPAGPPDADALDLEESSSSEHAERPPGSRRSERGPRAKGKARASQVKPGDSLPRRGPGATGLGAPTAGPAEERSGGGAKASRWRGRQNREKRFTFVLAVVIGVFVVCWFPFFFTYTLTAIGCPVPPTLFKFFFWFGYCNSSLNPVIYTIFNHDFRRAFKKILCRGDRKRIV
The test can be described thus: Binding activity against alpha-2 adrenergic receptor from calf cerebral cortex, using [3H]clonidine as the radioligand. In kind it is tissue-based.

Test [5] has as its target T5, Adrenergic receptor alpha-1 (Rattus norvegicus, UniProt P15823+P23944+P43140).
T5 sequence (P15823 whole entry): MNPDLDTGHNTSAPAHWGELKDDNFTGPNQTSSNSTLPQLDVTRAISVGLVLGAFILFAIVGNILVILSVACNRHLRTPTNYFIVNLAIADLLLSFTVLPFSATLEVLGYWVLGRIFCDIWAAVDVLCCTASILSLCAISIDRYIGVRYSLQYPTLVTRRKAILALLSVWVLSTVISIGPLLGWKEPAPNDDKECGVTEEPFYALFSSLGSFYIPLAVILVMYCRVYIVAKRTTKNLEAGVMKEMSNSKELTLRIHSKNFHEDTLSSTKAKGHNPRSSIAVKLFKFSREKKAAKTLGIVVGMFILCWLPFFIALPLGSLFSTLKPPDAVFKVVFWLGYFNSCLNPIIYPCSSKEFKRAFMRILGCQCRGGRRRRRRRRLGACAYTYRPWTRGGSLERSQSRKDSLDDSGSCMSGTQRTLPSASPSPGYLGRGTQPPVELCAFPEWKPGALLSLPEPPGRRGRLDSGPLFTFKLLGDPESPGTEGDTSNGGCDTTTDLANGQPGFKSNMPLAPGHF
T5 sequence (P23944 whole entry): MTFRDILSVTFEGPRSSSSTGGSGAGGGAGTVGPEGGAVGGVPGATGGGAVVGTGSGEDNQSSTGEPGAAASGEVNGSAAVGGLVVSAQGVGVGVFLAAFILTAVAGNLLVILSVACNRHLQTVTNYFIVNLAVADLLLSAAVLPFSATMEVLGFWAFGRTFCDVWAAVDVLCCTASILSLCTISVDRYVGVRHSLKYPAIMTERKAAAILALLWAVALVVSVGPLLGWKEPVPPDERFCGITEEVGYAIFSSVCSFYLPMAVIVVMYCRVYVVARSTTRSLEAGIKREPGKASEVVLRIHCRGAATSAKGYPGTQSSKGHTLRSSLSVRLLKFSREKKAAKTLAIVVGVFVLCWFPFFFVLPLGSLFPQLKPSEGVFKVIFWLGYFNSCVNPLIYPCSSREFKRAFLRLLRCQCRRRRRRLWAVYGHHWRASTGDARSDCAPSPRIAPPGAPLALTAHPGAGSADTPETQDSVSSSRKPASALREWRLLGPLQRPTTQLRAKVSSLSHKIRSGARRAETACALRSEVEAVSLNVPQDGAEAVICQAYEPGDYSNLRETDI
T5 sequence (P43140 whole entry): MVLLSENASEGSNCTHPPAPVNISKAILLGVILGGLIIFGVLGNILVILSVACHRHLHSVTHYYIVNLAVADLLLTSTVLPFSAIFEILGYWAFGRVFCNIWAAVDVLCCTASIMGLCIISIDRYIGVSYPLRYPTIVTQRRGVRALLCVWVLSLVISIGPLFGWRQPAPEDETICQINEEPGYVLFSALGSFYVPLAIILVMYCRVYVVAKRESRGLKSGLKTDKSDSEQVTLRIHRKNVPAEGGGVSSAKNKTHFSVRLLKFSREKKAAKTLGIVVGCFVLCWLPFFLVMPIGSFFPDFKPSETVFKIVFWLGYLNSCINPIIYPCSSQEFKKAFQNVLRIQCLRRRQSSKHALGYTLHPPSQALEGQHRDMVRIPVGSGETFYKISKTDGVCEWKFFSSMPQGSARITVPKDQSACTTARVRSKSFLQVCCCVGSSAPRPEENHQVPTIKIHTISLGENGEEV
The test can be described thus: Presynaptic antagonistic activity against alpha-1 adrenergic receptor from rat, isolated, field-stimulated vas deferens, using methoxamine as the agonist. In kind it is functional.

For test [6], the target named is T3, Adrenergic receptor alpha-2 (Rattus norvegicus). Nature of the test: Antagonistic activity against central alpha-2 adrenergic receptor, in anesthetized rats, by reversing the established clonidine-induced mydriasis; 0.3-1. In kind it is functional.

In turn, `FC(F)(F)c1cccnc1N1CCNCC1` displayed a pA2 in test [1] of under 5.8. Also, the values for the Ki in test [2] and in test [4] were 2850 nM and 97 nM, respectively. In test [3], this molecule had an AD50 of 3.63 mg/kg.

For `Ic1cccnc1N1CCNCC1`, the pA2 in test [1] turned out to be 6.2; in test [5], 6. In test [2], the affinity, expressed as Ki, was 1600 nM. The AD50 in test [3] worked out at 1.95 mg/kg.

For the molecule `COC(=O)[C@H]1[C@H]2C[C@H]3c4[nH]c5ccccc5c4CCN3C[C@H]2CC[C@@H]1O`, the AD50 in test [3] came to 1.1 mg/kg.

`NC(=O)c1cccnc1N1CCNCC1` showed a pA2 in test [1] of under 5.8. Moreover, the Ki in test [2] was found to be 62000 nM; in test [4] it was 5200 nM. In test [3], the AD50 was over 3 mg/kg.

For the molecule `c1ccc2c(c1)OCC(C1=NCCN1)O2` (stereo unspecified) [IDAZOXAN], the values for the Ki in test [2] and in test [4] were 500 nM and 1.5 nM, respectively. The AD50 in test [3] is 0.05 mg/kg.

Take `Clc1cccnc1N1CCNCC1`: the figures for the pA2 in test [1] and in test [5] were 6.9 and 5.7, respectively. Besides, the Ki in test [2] amounted to 1800 nM. The AD50 in test [3] amounted to 0.44 mg/kg.

Regarding `Cc1ccnc(N2CCNCC2)c1Cl`, the pA2 in test [1] amounted to 5.9. The Ki in test [2] stood at 4300 nM; in test [4] it was 74 nM. The same molecule came in with an AD50 in test [3] of 14 mg/kg.

For `Clc1cnc(N2CCNCC2)c(Cl)c1`, the pA2 in test [1] is reported as under 5.8. Also, the Ki in test [2] came to 800 nM; in test [4], 500 nM. Also, in test [3], the AD50 is over 3 mg/kg.

`Nc1cccnc1N1CCNCC1` yielded a pA2 in test [1] of under 5.8. Further, the Ki was found to be 31000 nM in test [2] and 440 nM in test [4]. This molecule also had an AD50 in test [3] of over 3 mg/kg.

For the molecule `Brc1cccnc1N1CCNCC1`, the pA2 in test [1] was 6.6; in test [5], 5.8. In addition, in test [2], the Ki was 1480 nM. Also, the AD50 in test [3] worked out at 0.68 mg/kg.

In test [1], `O=[N+]([O-])c1cccnc1N1CCNCC1` gave a pA2 of 6.3. The results for the Ki in test [2] and in test [4] were 3800 nM and 26 nM, respectively. This molecule also gave an AD50 in test [3] of 1.53 mg/kg.

As for `Clc1cccc(N2CCNCC2)n1`, the pA2 is reported as 6.8 in test [1] and 6 in test [5]. In addition, in test [2], the Ki came to 375 nM. Besides, the AD50 in test [6] stood at 0.3 mg/kg.

Turning to `Clc1cnccc1N1CCNCC1`, the pA2 in test [1] is listed as under 5.8. Moreover, the Ki came out at 6800 nM in test [2] and 390 nM in test [4]. This molecule also yielded an AD50 in test [3] of over 3 mg/kg.

On to `Clc1ccc(N2CCNCC2)nc1`, for which the pA2 in test [1] is under 5.8. For the same molecule, the Ki in test [2] turned out to be 900 nM; in test [4] it was 1340 nM. The AD50 in test [3] is over 3 mg/kg.

For the molecule `CN1CCN(c2ncccc2Br)CC1`, the results for the pA2 in test [1] and in test [5] were 7.6 and 6.5, respectively. Moreover, the inhibition constant Ki in test [2] stood at 160 nM. For the same molecule, in test [3], the AD50 was determined as 0.74 mg/kg.

In test [3], `COC(=O)[C@@H]1[C@H]2C[C@H]3c4[nH]c5ccccc5c4CCN3C[C@@H]2CC[C@@H]1O` yielded an AD50 of 1.04 mg/kg.

Take `c1ccc(N2CCNCC2)nc1`: the pA2 came out at 6.4 in test [1] and 5.7 in test [5]. For the same molecule, affinity in test [2] was put at a Ki of 2400 nM. The AD50 in test [3] turned out to be 1.28 mg/kg.

As for `CN1CCN2c3ccccc3Cc3ccccc3C2C1` (stereo unspecified), in test [3], the AD50 is over 10 mg/kg.

On to `N#Cc1cccnc1N1CCNCC1`, for which the pA2 in test [1] worked out at 6.1. Further, the values for the Ki in test [2] and in test [4] were 2000 nM and 14 nM, respectively. In test [3], this molecule displayed an AD50 of 1.07 mg/kg.
